Values of other authors as cited in patent US20250356483A1, “Quality Control Of In-Vitro Analysis Sample Output” (Sanofi, priority 2022, published 2025).

Test system: liver cells
Details: CPZ@60 micro moles

SMILES: CN(C)CCCN1c2ccccc2Sc2ccc(Cl)cc21 [CPZ, Chlorpromazine]
- known toxic effect of reference compound (positive control): toxic to liver cells and triggers cholestasis
